Source: patent publication US12473304B2, “Heterocyclic PAD4 inhibitors” (BRISTOL-MYERS SQUIBB COMPANY, priority 2020, dated 2025)

Biological target: human PAD4 (hPAD4) (Homo sapiens (Human), UniProt Q9UM07)
Assay: RFMS Human PAD4 Functional Assay 1
Type: biochemical
Details: RFMS assay 1; 5 nM hPAD4, 250 μM BAEE substrate, 50 μM calcium, 37° C.
Summary of the method: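 Citrullination product read by RapidFire triple-quad MRM against a modified-citrulline internal standard, after TCA stop and 30 min phenyl glyoxal step at 37 °C. Reaction: 250 μM BAEE, 5 nM human PAD4, 90 min at 37 °C, pH 7.5 HEPES buffer with 50 μM calcium and 5 μM TPEN, following 30 min compound–enzyme preincubation (max 50 μM).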

human PAD4 (hPAD4), sequence (Q9UM07 whole entry): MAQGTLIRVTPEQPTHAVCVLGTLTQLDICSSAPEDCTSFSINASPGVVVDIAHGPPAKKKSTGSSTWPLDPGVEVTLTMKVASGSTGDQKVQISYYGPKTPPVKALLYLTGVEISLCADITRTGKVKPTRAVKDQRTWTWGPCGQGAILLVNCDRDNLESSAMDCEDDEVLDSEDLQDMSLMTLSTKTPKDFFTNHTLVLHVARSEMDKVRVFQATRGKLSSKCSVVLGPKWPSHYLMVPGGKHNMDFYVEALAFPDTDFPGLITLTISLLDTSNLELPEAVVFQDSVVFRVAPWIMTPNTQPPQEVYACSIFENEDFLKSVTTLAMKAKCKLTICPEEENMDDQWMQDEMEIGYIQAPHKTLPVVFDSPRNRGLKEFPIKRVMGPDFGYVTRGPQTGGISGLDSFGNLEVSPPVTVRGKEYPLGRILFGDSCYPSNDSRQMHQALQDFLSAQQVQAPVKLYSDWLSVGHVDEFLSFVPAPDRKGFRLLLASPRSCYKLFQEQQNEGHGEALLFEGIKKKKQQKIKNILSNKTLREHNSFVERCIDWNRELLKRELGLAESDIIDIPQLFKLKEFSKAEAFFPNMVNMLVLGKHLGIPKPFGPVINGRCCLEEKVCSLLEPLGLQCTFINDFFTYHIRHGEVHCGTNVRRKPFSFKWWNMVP

**Q.** With `Cc1c(-c2cc3ccc(-c4cccc(O)c4F)cc3n2CC2CC2)nn2cc(C(=O)N3CC4CCC3[C@@H]4N)cc(F)c12` (stereo partly drawn) [Example 59, ((7R)-7-Amino-2-azabicyclo[2.2.1]heptan-2-yl)(2-(1-(cyclopropylmethyl)-6-(2-fluoro-3-hydroxyphenyl)-1H-indol-2-yl)-4-fluoro-3-methylpyrazolo[1,5-a]pyridin-6-yl)methanone] as the molecule, how does the IC50 read?
**A.** Its IC50 is 291 nM.

**Q.** Which IC50 does the source give for `Cc1c(-c2cc3ccc(-c4ccc(O)c(F)c4)cc3n2CC2CC2)nn2cc(C(=O)N3CC4CCC3[C@@H]4N)cc(F)c12` (stereo partly drawn) [Example 60, ((7R)-7-Amino-2-azabicyclo[2.2.1]heptan-2-yl)(2-(1-(cyclopropylmethyl)-6-(3-fluoro-4-hydroxyphenyl)-1H-indol-2-yl)-4-fluoro-3-methylpyrazolo[1,5-a]pyridin-6-yl)methanone] here?
**A.** The IC50 was 83 nM.

**Q.** With `Cc1c(-c2cc3ccc(-c4ccn5c(C)nnc5c4)cc3n2CC2CC2)nn2cc(C(=O)N3CC4CCC3[C@@H]4N)cc(F)c12` (stereo partly drawn) [Example 62, ((7R)-7-Amino-2-azabicyclo[2.2.1]heptan-2-yl)(2-(1-(cyclopropylmethyl)-6-(3-methyl-[1,2,4]triazolo[4,3-a]pyridin-7-yl)-1H-indol-2-yl)-4-fluoro-3-methylpyrazolo[1,5-a]pyridin-6-yl)methanone] as the molecule, how does the IC50 read?
**A.** Its IC50 is 28 nM.

**Q.** How did the IC50 turn out when `Cc1c(-c2cc3cccnc3n2CC2CC2)nn2cc(C(=O)N3CC4CCC3[C@@H]4N)ccc12` (stereo partly drawn) [Example 63, ((7R)-7-Amino-2-azabicyclo[2.2.1]heptan-2-yl)(2-(1-(cyclopropylmethyl)-1H-pyrrolo[2,3-b]pyridin-2-yl)-3-methylpyrazolo[1,5-a]pyridin-6-yl)methanone] was run?
**A.** The IC50 was 227 nM.

**Q.** How did the IC50 turn out when `Cc1c(-c2cc3ccc(-c4ccc5c(c4)C(=O)NC5)nc3n2CC2CC2)nn2cc(C(=O)N3CC4CCC3[C@@H]4N)ccc12` (stereo partly drawn) [Example 65, 6-(2-(6-((7R)-7-Amino-2-azabicyclo[2.2.1]heptane-2-carbonyl)-3-methylpyrazolo[1,5-a]pyridin-2-yl)-1-(cyclopropylmethyl)-1H-pyrrolo[2,3-b]pyridin-6-yl)isoindolin-1-one] was run?
**A.** The IC50 was 25 nM.

**Q.** `Cc1ccc2cc(-c3nn4cc(C(=O)N5CC6CCC5[C@@H]6N)ccc4c3C)n(CC3CC3)c2n1` (stereo partly drawn) [Example 66, ((7R)-7-Amino-2-azabicyclo[2.2.1]heptan-2-yl)(2-(1-(cyclopropylmethyl)-6-methyl-1H-pyrrolo[2,3-b]pyridin-2-yl)-3-methylpyrazolo[1,5-a]pyridin-6-yl)methanone] was tested. Which IC50 did it give?
**A.** The IC50 was 59 nM.

**Q.** How did the IC50 turn out when `Cc1c(-c2cc3ccc(-c4ccc(O)c(F)c4)nc3n2CC2CC2)nn2cc(C(=O)N3CC4CCC3[C@@H]4N)ccc12` (stereo partly drawn) [Example 67, ((7R)-7-Amino-2-azabicyclo[2.2.1]heptan-2-yl)(2-(1-(cyclopropylmethyl)-6-(3-fluoro-4-hydroxyphenyl)-1H-pyrrolo[2,3-b]pyridin-2-yl)-3-methylpyrazolo[1,5-a]pyridin-6-yl)methanone] was run?
**A.** Its IC50 is 23 nM.

**Q.** How did the IC50 turn out when `Cc1c(-c2cc3ccc(-c4cccc(O)c4F)nc3n2CC2CC2)nn2cc(C(=O)N3CC4CCC3[C@@H]4N)ccc12` (stereo partly drawn) [Example 68, ((7R)-7-Amino-2-azabicyclo[2.2.1]heptan-2-yl)(2-(1-(cyclopropylmethyl)-6-(2-fluoro-3-hydroxyphenyl)-1H-pyrrolo[2,3-b]pyridin-2-yl)-3-methylpyrazolo[1,5-a]pyridin-6-yl)methanone] was run?
**A.** The IC50 was 26 nM.

**Q.** With `Cc1c(-c2cc3ccc(-c4ccc(C(N)=O)c(F)c4)nc3n2CC2CC2)nn2cc(C(=O)N3CC4CCC3[C@@H]4N)ccc12` (stereo partly drawn) [Example 69, 4-(2-(6-((7R)-7-Amino-2-azabicyclo[2.2.1]heptane-2-carbonyl)-3-methylpyrazolo[1,5-a]pyridin-2-yl)-1-(cyclopropylmethyl)-1H-pyrrolo[2,3-b]pyridin-6-yl)-2-fluorobenzamide] as the molecule, how does the IC50 read?
**A.** Its IC50 is 19 nM.

**Q.** How did the IC50 turn out when `Cc1c(-c2cc3ccc(-c4ccn5c(C)nnc5c4)nc3n2CC2CC2)nn2cc(C(=O)N3CC4CCC3[C@@H]4N)ccc12` (stereo partly drawn) [Example 70, ((7R)-7-Amino-2-azabicyclo[2.2.1]heptan-2-yl)(2-(1-(cyclopropylmethyl)-6-(3-methyl-[1,2,4]triazolo[4,3-a]pyridin-7-yl)-1H-pyrrolo[2,3-b]pyridin-2-yl)-3-methylpyrazolo[1,5-a]pyridin-6-yl)methanone] was run?
**A.** Its IC50 is 15 nM.

**Q.** For `Cc1c(-c2cc3ccc(C4CC4)nc3n2CC2CC2)nn2cc(C(=O)N3CC4CCC3[C@@H]4N)ccc12` (stereo partly drawn) [Example 71, ((7R)-7-Amino-2-azabicyclo[2.2.1]heptan-2-yl)(2-(6-cyclopropyl-1-(cyclopropylmethyl)-1H-pyrrolo[2,3-b]pyridin-2-yl)-3-methylpyrazolo[1,5-a]pyridin-6-yl)methanone], which IC50 is on record?
**A.** Its IC50 is 22 nM.

**Q.** How did the IC50 turn out when `COc1cc(-c2ccc3cc(-c4nn5cc(C(=O)N6CC7CCC6[C@@H]7N)ccc5c4C)n(CC4CC4)c3n2)c(F)cn1` (stereo partly drawn) [Example 72, ((7R)-7-Amino-2-azabicyclo[2.2.1]heptan-2-yl)(2-(1-(cyclopropylmethyl)-6-(5-fluoro-2-methoxypyridin-4-yl)-1H-pyrrolo[2,3-b]pyridin-2-yl)-3-methylpyrazolo[1,5-a]pyridin-6-yl)methanone] was run?
**A.** Its IC50 is 67 nM.

**Q.** For `Cc1c(-c2cc3ccc(-c4ccc(OC(F)F)c(F)c4)nc3n2CC2CC2)nn2cc(C(=O)N3CC4CCC3[C@@H]4N)ccc12` (stereo partly drawn) [Example 73, ((7R)-7-Amino-2-azabicyclo[2.2.1]heptan-2-yl)(2-(1-(cyclopropylmethyl)-6-(4-(difluoromethoxy)-3-fluorophenyl)-1H-pyrrolo[2,3-b]pyridin-2-yl)-3-methylpyrazolo[1,5-a]pyridin-6-yl)methanone], which IC50 is on record?
**A.** Its IC50 is 605 nM.

**Q.** How did the IC50 turn out when `Cc1c(-c2cc3ccc(-c4cc(F)c(O)c(F)c4)nc3n2CC2CC2)nn2cc(C(=O)N3CC4CCC3[C@@H]4N)ccc12` (stereo partly drawn) [Example 74, ((7R)-7-Amino-2-azabicyclo[2.2.1]heptan-2-yl)(2-(1-(cyclopropylmethyl)-6-(3,5-difluoro-4-hydroxyphenyl)-1H-pyrrolo[2,3-b]pyridin-2-yl)-3-methylpyrazolo[1,5-a]pyridin-6-yl)methanone] was run?
**A.** The IC50 was 425 nM.

**Q.** With `Cc1c(-c2cc3ccc(-c4ccc(F)c(O)c4)nc3n2CC2CC2)nn2cc(C(=O)N3CC4CCC3[C@@H]4N)ccc12` (stereo partly drawn) [Example 75, ((7R)-7-Amino-2-azabicyclo[2.2.1]heptan-2-yl)(2-(1-(cyclopropylmethyl)-6-(4-fluoro-3-hydroxyphenyl)-1H-pyrrolo[2,3-b]pyridin-2-yl)-3-methylpyrazolo[1,5-a]pyridin-6-yl)methanone] as the molecule, how does the IC50 read?
**A.** The IC50 was 166 nM.

**Q.** How did the IC50 turn out when `COC1CCN(c2ccc3cc(-c4nn5cc(C(=O)N6CC7CCC6[C@@H]7N)ccc5c4C)n(CC4CC4)c3n2)CC1` (stereo partly drawn) [Example 76, ((7R)-7-Amino-2-azabicyclo[2.2.1]heptan-2-yl)(2-(1-(cyclopropylmethyl)-6-(4-methoxypiperidin-1-yl)-1H-pyrrolo[2,3-b]pyridin-2-yl)-3-methylpyrazolo[1,5-a]pyridin-6-yl)methanone] was run?
**A.** Its IC50 is 96 nM.

**Q.** `Cc1c(-c2cc3ccc(N4CCC(O)CC4)nc3n2CC2CC2)nn2cc(C(=O)N3CC4CCC3[C@@H]4N)ccc12` (stereo partly drawn) [Example 77, ((7R)-7-Amino-2-azabicyclo[2.2.1]heptan-2-yl)(2-(1-(cyclopropylmethyl)-6-(4-hydroxypiperidin-1-yl)-1H-pyrrolo[2,3-b]pyridin-2-yl)-3-methylpyrazolo[1,5-a]pyridin-6-yl)methanone] was tested. Which IC50 did it give?
**A.** The IC50 was 77 nM.

**Q.** `Cc1c(-c2cc3ccc(N4CCC[C@@H](O)C4)nc3n2CC2CC2)nn2cc(C(=O)N3CC4CCC3[C@@H]4N)ccc12` (stereo partly drawn) [Example 78, ((7R)-7-Amino-2-azabicyclo[2.2.1]heptan-2-yl)(2-(1-(cyclopropylmethyl)-6-((R)-3-hydroxypiperidin-1-yl)-1H-pyrrolo[2,3-b]pyridin-2-yl)-3-methylpyrazolo[1,5-a]pyridin-6-yl)methanone] was tested. Which IC50 did it give?
**A.** The IC50 was 143 nM.

**Q.** Which IC50 does the source give for `COC1CN(c2ccc3cc(-c4nn5cc(C(=O)N6CC7CCC6[C@@H]7N)ccc5c4C)n(CC4CC4)c3n2)C1` (stereo partly drawn) [Example 79, ((7R)-7-Amino-2-azabicyclo[2.2.1]heptan-2-yl)(2-(1-(cyclopropylmethyl)-6-(3-methoxyazetidin-1-yl)-1H-pyrrolo[2,3-b]pyridin-2-yl)-3-methylpyrazolo[1,5-a]pyridin-6-yl)methanone] here?
**A.** The IC50 was 212 nM.

**Q.** With `Cc1c(-c2cc3cccnc3n2CC2CC2)nn2cc(C(=O)N3C[C@H](N)C[C@@H](F)C3)ccc12` [Example 80, ((3R,5R)-3-Amino-5-fluoropiperidin-1-yl)(2-(1-(cyclopropylmethyl)-1H-pyrrolo[2,3-b]pyridin-2-yl)-3-methylpyrazolo[1,5-a]pyridin-6-yl)methanone] as the molecule, how does the IC50 read?
**A.** The IC50 was 1610 nM.

**Q.** How did the IC50 turn out when `Cc1c(-c2cc3ccc(-c4ccc5c(c4)CNC5=O)nc3n2CC2CC2)nn2cc(C(=O)N3C[C@H](N)C[C@@H](F)C3)ccc12` [Example 81, 5-(2-(6-((3R,5R)-3-Amino-5-fluoropiperidine-1-carbonyl)-3-methylpyrazolo[1,5-a]pyridin-2-yl)-1-(cyclopropylmethyl)-1H-pyrrolo[2,3-b]pyridin-6-yl)isoindolin-1-one] was run?
**A.** Its IC50 is 384 nM.

**Q.** `Cc1ccc2cc(-c3nn4cc(C(=O)N5C[C@H](N)C[C@@H](F)C5)ccc4c3C)n(CC3CC3)c2n1` [Example 82, ((3R,5R)-3-Amino-5-fluoropiperidin-1-yl)(2-(1-(cyclopropylmethyl)-6-methyl-1H-pyrrolo[2,3-b]pyridin-2-yl)-3-methylpyrazolo[1,5-a]pyridin-6-yl)methanone] was tested. Which IC50 did it give?
**A.** Its IC50 is 368 nM.

**Q.** Which IC50 does the source give for `Cc1c(-c2cc3ccc(-c4ccc5c(c4)C(=O)NC5)nc3n2CC2CC2)nn2cc(C(=O)N3C[C@H](N)C[C@@H](F)C3)ccc12` [Example 83, 6-(2-(6-((3R,5R)-3-Amino-5-fluoropiperidine-1-carbonyl)-3-methylpyrazolo[1,5-a]pyridin-2-yl)-1-(cyclopropylmethyl)-1H-pyrrolo[2,3-b]pyridin-6-yl)isoindolin-1-one] here?
**A.** The IC50 was 384 nM.
